Experiments:
[1] = test system: AGE formation; experiment: Inhibitory effect on AGE formation (BSA with fructose and glucose, fluorescence Ex 350 nm / Em 450 nm); type: biochemical, bovine; details: for Inhibitory effect / IC50: 7 days
Experimental: To determine the inhibitory effect of the compound of Chemical Formula 1 according to the present invention on formation of AGE, which are an indicator of diabetic complications and indicator of treatment efficiency assessment, the following experiment was carried out.
Bovine serum albumin (BSA) was used as a protein and the degree of binding to fructose and glucose was used as an indicator. Aminoguanidine, which is known to have very excellent inhibitory effect on AGE, was used as a positive control.
Bovine serum albumin (hereinafter, referred to as BSA; Sigma, U.S.A.) was used as a protein source. BSA was added to 50 mM phosphate buffer (pH 7.4) to be a concentration of 10 mg/mL. A mixed solution of 0.2 M fructose and 0.2 M glucose was used as a sugar source. The mixed solution of fructose and glucose was added to the prepared BSA solution. 2.5, 5 and 10 μg/mL of the compound of Chemical Formula 1 obtained from Example 1 were prepared (All compounds were dissolved in DMSO and 15% tween 80 was added thereto. Total amount of DMSO was 0.2%). The compound was added to the mixed solution of BSA and sugars and the mixture was cultured at 37° C. for 7 days.
At this time, 0.02% sodium azide and anticomycotics were added as an antibacterial agent and antifungal agents. A control was the cultured mixture of BSA and sugars. Blanks for the control and experimental group were those that were prepared but non-cultured. Aminoguanidine was used for a positive control, the indicator for comparing the effectiveness. All cultures were prepared in quadruplicate to avoid error as much as possible.
After 7 days, the amount of AGE produced from each culture was analyzed and the result was shown. AGE has fluorescence, brown color, and a physicochemical property capable of cross-linking and has ligands which cell membrane receptors can recognize. The amount of AGE having those characteristics was measured by a microplate reader (Excitation: 350 nm, Emission: 450 nm) to analyze the inhibition degree of formation (Vinson, J. A. et al., J. Nutr. Biochem., 7: 659-663, 1996), and the inhibition rate of formation was calculated using the following Equation 1.
Aminoguanidine was used for the positive control. Aminoguanidine was dissolved in distilled water and 37, 55.6. and 74 μg/mL of aminoguanidine were cultured for 7 days as described above. After 7 days, the amount of AGE produced from culture was measured by a microplate reader (Excitation: 350 nm, Emission: 450 nm).

[2] = test system: retinal angiogenesis; experiment: Oxygen induced retinopathy (OIR) mouse model: FITC-dextran, isolectin-B4 staining, retina Western blot; type: in vivo, mice (C58BL/6)
Experimental: To determine the inhibitory effect of the compound of Chemical Formula 1 of the present invention on retinal angiogenesis, the following experiment was carried out. Experimental animals were mice born after crossbreeding 7-8-week-old C58BL/6. On 7th day after birth, mice (P7) were placed into an oxygen chamber and 75% of the oxygen concentration was maintained in the chamber for five days (P7-P11). 12-hour cyclic illumination was maintained in the animal room. Temperature was maintained at 24° C. Animals were allowed to access freely to feeds and drinking water. At an ambient atmosphere, the drug was intraperitoneally injected each day for five days (P12-P16). On 17th day after birth, 30 mg/kg of Zoletil (Zoletil 50, Virbac) and 10 mg/kg of Rompun (Bayer Korea) were mixed at a ratio of 3:2 and 10-fold diluted in physiological saline and 50 μL was intraperitoneally injected to anesthetize animals. After laparotomy, 100 μL of 50 mg/mL of FITC-dextran (Sigma, St. Louis, Mo., USA) dissolved in PBS was injected to a heart. When the heart stopped, eyes were removed. Retina was separated from one eye and stored at −70° C. The other eye was fixed using 4% paraformaldehyde for 10 min. After separation of retina, thin fixed retina slide was prepared and observed using a fluorescence microscope (BX51, Olympus, Japan). Retina was fixed in 4% paraformaldehyde for 3 hours, and washed with PBS, and then agitated in PBS containing triton X-100 and 1% bovine serum albumin for 3 hours. Retina was washed again and 1 mg/mL of isolectin-B4 (L2140, Sigma) was diluted in PBS to 1:50 and retina was agitated with isolectin-B4 at 4° C. for overnight. After washing the retina with PBS containing 0.05% Tween 20 for 2 hours, streptavidin-TRITC was diluted to 1:500 and allowed to react with retina at 37° C. for 4 hours. Then, retina was washed with PBS for 30 min and observed using a fluorescence microscope (BX51, Olympus, Japan). Retina stored at −70° C. was homogenized with homogenization buffer (pH 7.6). Protein quantification was carried out by Lowry's principle and SDS-PAGE electrophoresis was carried out for each 30 μg. Migrated proteins in a gel were immobilized onto a nitrocellulose membrane and transferred to the membrane at 100 V, 250 mA for 1.5 hours. Antibodies to be quantified were immunoabsorbed to the adsorbed proteins and color was developed using an enhanced-chemiluminescence (ECL) solution. Protein expression was determined by measuring the density with Scion image analysis program.

[3] = test system: diabetic retinopathy-induced retina; experiment: Diabetic retinopathy-induced (intravitreal BSA-AGE) rat model: FITC-dextran retinal vessels, retina Western blot; type: in vivo, Sprague Dawley (SD) white rats
Experimental: To determine the therapeutic effect of the compound of the present invention on retina, to which diabetic retinopathy, one example of diabetic complications, was induced, the following experiment was carried out. Sprague Dawley (SD) white rats (6 weeks) were obtained from Daehan Biolink Co. and acclimated for 7 days to the animal room. SD rats were divided into normal group, diabetic group, experimental group, and control group. The animal room was maintained under the following conditions: temperature 23° C.; humidity 40-60%; and 12 h light-dark cycle. Feeds for experimental animals and drinking water were provided without limitation. All experiments were carried out in accordance with Standard Operation Procedures (SOP) by Institutional Animal Care and Use Committee (IACUC). SD rats were anesthetized by an intraperitoneal injection of 5 mg/mL of Zoletil and 5 mg/mL of Rompun. 20 mg/mL of BSA-AGE alone for normal group and diabetic group and both 20 mg/mL of BSA-AGE and a drug for experimental group and control group were injected via Hamilton syringes and needles to eyes. At this time, the needle was introduced into the sclera, 3 mm away from the corneal limbus, and after confirming that the end of the needle was located in the vitreous cavity, administration was carried out. After 24 hours, eyes were removed. The compound of Chemical Formula 1 obtained from Example 1 was used for the drug. A mixture of the same amount of Zoletil and Rompun was intraperitoneally injected to anesthetize animals. Hearts were obtained by opening abdominal cavity and thoracic cavity. 1 mL of fluorescent isothiocyanate dextran (FITC-dextran, Sigma, St. Louis, Mo., USA) which was prepared by dissolving […] of FITC-dextran in 1 mL of sterile physiological saline was injected into the left ventricle. After 10 minutes, eyes were removed and separated from eyecups. Left eyes were incised in four directions and placed onto a slide glass. After mounting, left eyes were observed by a fluorescent microscope. For right eyes, only retina was separated from the eye and rapidly frozen in liquid nitrogen and stored at −70° C. To prepare BSA-AGE, 30 mM glucose (Sigma, St. Louis, Mo., USA) and 20 mg/mL of BSA (Roche, Germany) were added to sodium phosphate buffer (100 mM, pH 7.4) and cultured at 37° C. for 50 days. After 50 days, BSA-AGE was injected into PD-10 column and the remaining glucose was removed by dialysis and only pure BSA-AGE was obtained. Purified BSA-AGE was aliquoted and stored at −70° C. to use. Retina stored at −70° C. was homogenized with homogenization buffer (pH 7.6). Protein quantification was carried out by Lowry's principle and SDS-PAGE electrophoresis was carried out for each […]. Migrated proteins in a gel were immobilized onto a nitrocellulose membrane and transferred to the membrane at 100 V, 250 mA for 1.5 hours. Antibodies to be quantified were immunoabsorbed to the adsorbed proteins and color was developed using an enhanced-chemiluminescence (ECL) solution. Protein expression was determined by measuring the density with Scion image analysis program.

[4] = 100 mg/kg, intraperitoneal P12-P16
[5] = across doses, intraperitoneal P12-P16
[6] = across doses, vs. diabetic group

N=C(N)NN [Aminoguanidine, reference compound]
Inhibitory effect ([1]; 37 μg/mL): 44.53 ± 2.33%
Inhibitory effect ([1]; 55.5 μg/mL): 49.97 ± 0.59%
Inhibitory effect ([1]; 74 μg/mL): 56.37 ± 0.67%
IC50 [1]: 1060 ± 57.2 µM

COc1cc(O)cc(-c2ccc(O)c(O)c2)c1 [Compound of Chemical Formula 1]
Inhibitory effect ([1]; 2.5 μg/mL): 4.25 ± 5.38%
Inhibitory effect ([1]; 5 μg/mL): 17.16 ± 5.86%
Inhibitory effect ([1]; 10 μg/mL): 54.17 ± 6.02%
IC50 [1]: 41 ± 3.78 µM
inhibitory effect on AGE formation relative to aminoguanidine ([1]; ratio of IC50 values, greater than control): 26 times
angiogenesis (isolectin-B4 staining) [2, 4]: significantly inhibited
avascular area (FITC-dextran) [2, 4]: significantly reduced
increase in length by vascular tortuosity [2, 4]: reduced
Changes in the angiogenic growth factor (retina, Western blot) ([2]; 100 mg/kg, p<0.05 vs. OIR): significant decrease
neovascular tufts (isolectin-B4 staining) [2, 5]: ameliorated in a dose-dependent manner
vascular tortuosity (FITC-dextran) [2, 5]: ameliorated in a dose-dependent manner
Changes in the angiogenic growth factor (retina, Western blot) ([2]; across doses, vs. OIR group): dose-dependent decrease
Changes in occludin (retina, Western blot) ([3]; 100 μM, p<0.05 vs. AGE-BSA): significant increase
Changes in the angiogenic growth factor (retina, Western blot) ([3]; 100 μM, p<0.05 vs. AGE-BSA): significant decrease
Changes in occludin (retina, Western blot) ([3]; 150 μM, p<0.05 vs. AGE-BSA): significant increase
Changes in the angiogenic growth factor (retina, Western blot) ([3]; 150 μM, p<0.05 vs. AGE-BSA): significant decrease
Changes in occludin (retina, Western blot) [3, 6]: dose-dependent increase
Changes in the angiogenic growth factor (retina, Western blot) [3, 6]: dose-dependent decrease
